The results in this text go back to ChEMBL document CHEMBL1909046, “DrugMatrix in vitro pharmacology data”.

Experiment [1] concerns the target T1, Type-2 angiotensin II receptor (Homo sapiens, UniProt P50052). Also: in other assays of this panel Not Active means under 50% inhibition at 10 µM.
T1 sequence (P50052 whole entry): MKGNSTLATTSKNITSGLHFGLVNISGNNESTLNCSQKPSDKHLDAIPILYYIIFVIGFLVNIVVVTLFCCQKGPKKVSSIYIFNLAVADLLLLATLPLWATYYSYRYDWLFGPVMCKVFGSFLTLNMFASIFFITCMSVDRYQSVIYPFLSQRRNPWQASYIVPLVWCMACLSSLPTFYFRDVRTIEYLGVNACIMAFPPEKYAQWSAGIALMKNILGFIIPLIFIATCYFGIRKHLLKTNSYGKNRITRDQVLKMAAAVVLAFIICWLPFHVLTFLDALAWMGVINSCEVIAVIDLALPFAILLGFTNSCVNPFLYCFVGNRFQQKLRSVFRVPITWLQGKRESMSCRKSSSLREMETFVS
The class given is cell-based. The settings on record: cho-k1.

The target of experiment [2] is T2, Neuropeptide Y receptor type 2 (Homo sapiens, UniProt P49146). Also: in other assays of this panel Not Active means under 50% inhibition at 10 µM.
T2 sequence (P49146 whole entry): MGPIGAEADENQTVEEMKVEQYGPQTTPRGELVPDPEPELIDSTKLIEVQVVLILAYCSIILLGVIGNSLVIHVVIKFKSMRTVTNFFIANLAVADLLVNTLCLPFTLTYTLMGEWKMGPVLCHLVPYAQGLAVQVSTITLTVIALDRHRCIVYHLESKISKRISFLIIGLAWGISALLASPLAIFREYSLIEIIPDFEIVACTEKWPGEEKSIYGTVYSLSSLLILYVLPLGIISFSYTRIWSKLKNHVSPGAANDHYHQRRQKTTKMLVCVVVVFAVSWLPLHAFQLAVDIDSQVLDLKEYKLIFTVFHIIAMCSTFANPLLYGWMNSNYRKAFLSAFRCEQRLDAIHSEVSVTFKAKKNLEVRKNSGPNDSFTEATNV
The class given is cell membranes, KAN-TS, Membrane.

Experiment [3] is described as follows: DRUGMATRIX: Nicotinic Acetylcholine radioligand binding (ligand: [125I] Epibatidine). The experiment is classed as cell membranes, Membrane. To be noted: imr-32; Not Active = under 50% inhibition at 10 µM.
The target of experiment [4] is cGMP-specific 3',5'-cyclic phosphodiesterase (Homo sapiens, UniProt O76074). Description: DRUGMATRIX: Phosphodiesterase PDE5 enzyme inhibition (substrate: [3H]cGMP + cGMP). The class given is tissue-based, Platelet. To be noted: platelet; Not Active = under 50% inhibition at 10 µM.
The target of experiment [5] is Mitogen-activated protein kinase 1 (Homo sapiens, UniProt P28482). The experiment in a line: DRUGMATRIX: Protein Serine/Threonine Kinase, ERK2 enzyme inhibition (substrate: Myelin Basic Protein). More on the design: species or system Escherichia coli. To be noted: Not Active = under 50% inhibition at 10 µM.
Experiment [6] deals with Estrogen receptor beta (Homo sapiens, UniProt Q92731). The settings on record: sf9.
For experiment [7], the target named is D(3) dopamine receptor (Homo sapiens, UniProt P35462). Description: DRUGMATRIX: Dopamine D3 radioligand binding (ligand: [3H] Spiperone). The class given is cell membranes, CHO, Membrane.
Chain of D(3) dopamine receptor (P35462 whole entry): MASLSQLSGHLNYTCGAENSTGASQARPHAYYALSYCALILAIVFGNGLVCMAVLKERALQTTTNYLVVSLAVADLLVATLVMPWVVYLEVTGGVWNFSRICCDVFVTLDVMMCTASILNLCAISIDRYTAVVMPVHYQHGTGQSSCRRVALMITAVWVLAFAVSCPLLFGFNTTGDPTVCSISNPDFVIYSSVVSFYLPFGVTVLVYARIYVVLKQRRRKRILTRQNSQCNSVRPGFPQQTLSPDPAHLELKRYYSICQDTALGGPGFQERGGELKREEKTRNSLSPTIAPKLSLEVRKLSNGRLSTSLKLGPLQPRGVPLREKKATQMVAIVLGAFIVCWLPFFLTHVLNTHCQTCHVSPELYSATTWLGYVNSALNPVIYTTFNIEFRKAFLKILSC

Chain of Mitogen-activated protein kinase 1 (P28482 whole entry): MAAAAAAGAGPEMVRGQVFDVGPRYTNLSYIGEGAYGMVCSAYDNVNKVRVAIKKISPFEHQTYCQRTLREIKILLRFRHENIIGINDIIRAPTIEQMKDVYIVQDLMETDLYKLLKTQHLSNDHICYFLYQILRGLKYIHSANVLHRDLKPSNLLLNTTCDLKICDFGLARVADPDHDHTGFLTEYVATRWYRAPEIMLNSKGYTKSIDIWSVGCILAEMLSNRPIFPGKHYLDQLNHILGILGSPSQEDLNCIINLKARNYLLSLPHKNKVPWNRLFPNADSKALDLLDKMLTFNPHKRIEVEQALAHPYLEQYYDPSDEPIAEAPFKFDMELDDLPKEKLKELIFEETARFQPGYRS
Chain of Estrogen receptor beta (Q92731 whole entry): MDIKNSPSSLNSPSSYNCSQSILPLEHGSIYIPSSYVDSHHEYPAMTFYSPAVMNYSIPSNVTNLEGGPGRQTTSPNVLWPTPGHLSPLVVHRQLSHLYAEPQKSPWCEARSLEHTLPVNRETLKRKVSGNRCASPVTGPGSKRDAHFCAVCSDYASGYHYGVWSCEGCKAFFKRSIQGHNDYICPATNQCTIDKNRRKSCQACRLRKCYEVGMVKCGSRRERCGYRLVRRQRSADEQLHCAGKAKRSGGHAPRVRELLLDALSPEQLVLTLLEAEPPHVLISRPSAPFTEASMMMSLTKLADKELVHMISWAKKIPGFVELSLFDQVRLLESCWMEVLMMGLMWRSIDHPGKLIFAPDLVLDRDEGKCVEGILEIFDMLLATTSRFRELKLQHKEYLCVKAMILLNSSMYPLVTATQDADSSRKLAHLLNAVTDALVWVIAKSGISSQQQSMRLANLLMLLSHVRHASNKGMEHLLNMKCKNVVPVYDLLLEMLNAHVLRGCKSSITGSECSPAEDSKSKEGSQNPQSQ

Usually IC50 stands for the concentration that inhibits the measured activity by half. In general, Ki refers to a dissociation constant, usually derived from enzyme kinetics or from competition with a known ligand. Consider `COc1ccc(CCN(C)CCCC(C#N)(c2ccc(OC)c(OC)c2)C(C)C)cc1OC` (stereo not drawn), for which the IC50 entry in experiment [1], in experiment [2] (kan-ts), in experiment [3], in experiment [4], in experiment [5] and in experiment [6] was “Not Active” throughout. In experiment [3], the Ki entry is on record as “Not Active”.

For the compound `CC(C)Cc1ccc([C@@H](C)C(=O)O)cc1` [(R)-IBUPROPHEN], the IC50 entry in experiment [1], in experiment [7] (cho), in experiment [2] (kan-ts), in experiment [3], in experiment [4] and in experiment [5] was “Not Active” throughout. In addition, in experiment [6], the IC50 result is recorded as “Not Active”. Besides, the Ki entry in experiment [3] is reported as “Not Active”.

Take `CC(C)NCC(O)c1ccc(O)c(O)c1` (stereo not drawn) [ISOPROTERENOL]: the IC50 entry in experiment [1], in experiment [7] (cho), in experiment [2] (kan-ts), in experiment [3], in experiment [4] and in experiment [5] was “Not Active” throughout. Besides, the IC50 result in experiment [6] is “Not Active”. Besides, in experiment [3], the Ki result is “Not Active”.

On to `NC(=O)N1C(=O)/C(=C(\O)c2cccs2)c2cc(Cl)ccc21` [TENIDAP], for which the IC50 entry in experiment [1], in experiment [7] (cho), in experiment [2] (kan-ts), in experiment [3], in experiment [4] and in experiment [5] was “Not Active” throughout. Besides, the IC50 result in experiment [6] is “Not Active”. Moreover, the Ki entry in experiment [3] is recorded as “Not Active”.

As for `NC1CCN(c2nc3c(cc2F)c(=O)c(C(=O)O)cn3-c2ccc(F)cc2F)C1` (stereo not drawn) [TOSUFLOXACIN], the IC50 result in experiment [1], in experiment [7] (cho), in experiment [2] (kan-ts), in experiment [3], in experiment [4] and in experiment [5] was “Not Active” each time. Besides, the IC50 result in experiment [6] is listed as “Not Active”. Further, the Ki result in experiment [3] was “Not Active”.

Turning to `N#Cc1ccc(C(c2ccc(C#N)cc2)n2cncn2)cc1` [LETROZOLE], the IC50 entry in experiment [1], in experiment [7] (cho), in experiment [2] (kan-ts), in experiment [3], in experiment [4] and in experiment [5] was “Not Active” in each case. Also, the IC50 result in experiment [6] is “Not Active”. Besides, the Ki entry in experiment [3] is listed as “Not Active”.

Regarding `O=C(Nc1ccc(Br)cc1)c1cc(Br)cc(Br)c1O` [TRIBROMSALAN], the IC50 result in experiment [1] was “Not Active”; in experiment [7] (cho) it was “Not Active”; in experiment [2] (kan-ts), “Not Active”; in experiment [3], “Not Active”; in experiment [4], “Not Active”; in experiment [5] (read-out: IC50), 623 nM. The IC50 entry in experiment [6] is given as “Not Active”. Besides, the Ki result in experiment [3] is “Not Active”.

On to `O=C1Nc2ccc(Cl)cc2C(c2ccccc2Cl)=NC1O` (stereo not drawn) [LORAZEPAM], for which the IC50 result in experiment [1], in experiment [7] (cho), in experiment [2] (kan-ts), in experiment [3], in experiment [4] and in experiment [5] was “Not Active” in each case. Also, the IC50 result in experiment [6] is on record as “Not Active”. Moreover, the Ki result in experiment [3] is given as “Not Active”.

Take `CNC1(c2ccccc2Cl)CCCCC1=O` (stereo not drawn) [KETAMINE]: the IC50 result in experiment [1], in experiment [7] (cho), in experiment [2] (kan-ts), in experiment [3], in experiment [4] and in experiment [5] was “Not Active” throughout. Further, in experiment [6], the IC50 entry is “Not Active”. In addition, the Ki result in experiment [3] was “Not Active”.

Regarding `CCN(CC)CCOc1ccc(/C(=C(/Cl)c2ccccc2)c2ccccc2)cc1` [ENCLOMIPHENE], the IC50 result in experiment [1], in experiment [2] (kan-ts), in experiment [4], in experiment [5] and in experiment [6] was “Not Active” each time.

Turning to SODIUM ORTHOVANAD, the IC50 result in experiment [1], in experiment [7] (cho), in experiment [2] (kan-ts), in experiment [3], in experiment [4] and in experiment [5] was “Not Active” in each case. The IC50 entry in experiment [6] was “Not Active”. The Ki entry in experiment [1], in experiment [7] (cho), in experiment [2] (kan-ts), in experiment [3], in experiment [4] and in experiment [5] was “Not Active” throughout. The Ki result in experiment [6] was “Not Active”.

Turning to `CN[C@H]1CC[C@@H](c2ccc(Cl)c(Cl)c2)c2ccccc21` [SERTRALINE], the IC50 entry in experiment [1], in experiment [7] (cho), in experiment [2] (kan-ts), in experiment [4], in experiment [5] and in experiment [6] was “Not Active” each time.

For the compound `CCN(CC)CC(=O)Nc1c(C)cccc1C` [LIDOCAINE], the IC50 result in experiment [1], in experiment [7] (cho), in experiment [2] (kan-ts), in experiment [3], in experiment [4] and in experiment [5] was “Not Active” each time. Also, in experiment [6], the IC50 result is “Not Active”. Further, the Ki result in experiment [3] is “Not Active”.

Take `CN(C)CCOC(c1ccccc1)c1ccccc1` [DIPHENHYDRAMINE]: the IC50 result in experiment [1], in experiment [7] (cho), in experiment [2] (kan-ts), in experiment [4], in experiment [5] and in experiment [6] was “Not Active” throughout.

For the compound `Fc1ccc(C(c2ccc(F)cc2)N2CCN(C/C=C/c3ccccc3)CC2)cc1` [FLUNARIZINE], the IC50 entry was “Not Active” in experiment [1]; 97 nM in experiment [7] (read-out: IC50); “Not Active” in experiment [2] (kan-ts); “Not Active” in experiment [4]; “Not Active” in experiment [5]; “Not Active” in experiment [6]. In addition, the Ki in experiment [7] (read-out: Ki) amounted to 33 nM.

Regarding `CNCCC(Oc1ccc(C(F)(F)F)cc1)c1ccccc1` (stereo not drawn) [FLUOXETINE], the IC50 entry in experiment [1], in experiment [7] (cho), in experiment [2] (kan-ts), in experiment [4], in experiment [5] and in experiment [6] was “Not Active” each time.

Regarding `Cc1ccc(NC(=O)c2ccc(CN3CCN(C)CC3)cc2)cc1Nc1nccc(-c2cccnc2)n1` [IMATINIB], the IC50 result in experiment [1], in experiment [7] (cho), in experiment [2] (kan-ts), in experiment [4] and in experiment [6] was “Not Active” throughout.

With `Clc1ccc(COC(Cn2ccnc2)c2ccc(Cl)cc2Cl)cc1` (stereo not drawn) [ECONAZOLE], the IC50 entry in experiment [1] is “Not Active”; in experiment [2] (read-out: IC50) it was 20100 nM; in experiment [4], “Not Active”; in experiment [5], “Not Active”; in experiment [6], “Not Active”. In addition, the Ki in experiment [2] (read-out: Ki) was 11000 nM.

Turning to `O=C1C(CC[S+]([O-])c2ccccc2)C(=O)N(c2ccccc2)N1c1ccccc1` (stereo not drawn) [SULFINPYRAZONE], the IC50 entry in experiment [1], in experiment [7] (cho), in experiment [2] (kan-ts), in experiment [3], in experiment [4] and in experiment [5] was “Not Active” throughout. The Ki result in experiment [3] is on record as “Not Active”.

On to `CCN1CCC[C@H]1CNC(=O)c1cc(S(N)(=O)=O)ccc1OC` [LEVOSULPIRIDE], for which the IC50 entry in experiment [1], in experiment [2] (kan-ts), in experiment [3], in experiment [4], in experiment [5] and in experiment [6] was “Not Active” each time. Moreover, the Ki result in experiment [3] is “Not Active”.
